What all share (type): cell-based, Hamster
In experiment [1] the test system is Sender-Receiver-PIN2. Nature of the experiment: Density-dependent survival of Sender-Receiver-PIN2 cells in blasticidin. The settings on record: media with blasticidin, 4 days. The procedure:
(§1) FIGS. 3A-3D depict non-limiting exemplary embodiments and data showing Sender-Receiver cells sense their population density and regulate survival accordingly. (FIGS. 3A-3B) Sender-Receiver and Sender-Receiver-PIN2 cells perform quorum sensing. For both plots, cells were seeded at different densities and induction conditions, with either of the two auxins (saturating signaling) or their precursors (to allow quorum sensing). mCherry fluorescence was assayed after two days as a reporter of auxin sensing. Inset: Cells in B express the transporter PIN2, which actively exports auxin. Data were fitted onto an inverted Michaelis-Menten's function on log scale (see FIG. 7B for fitted parameters). (FIG. 3C) Sender-Receiver-PIN2 cells sense population size per unit volume. Cells were grown for two days at 6 different densities for each media volume, and cultured on a rocker for better mixing. (FIG. 3D) Sender-Receiver-PIN2 triggers cell death at high population density. Cells were seeded at different confluence levels, grown for four days in media with 50 μg/ml blasticidin and IAM, IAA, or no auxin (Error bars are standard deviation, n=3)).
Linking quorum sensing to cell survival could enable cell population control (FIG. 1A, right). […]

The target of experiment [2] is T1, mCherry-AID-Blast R (UniProt P93830+Q7XVM8, DEL133-229).
T1 construct: expressed in transfected cells; 'Receiver' line
Nature of the experiment: Conditioned media from Sender-Receivers applied to Receivers. As to conditions: 2 days conditioning, diluted into an equal volume of fresh media. On the procedure:
FIGS. 2A-2E depict non-limiting exemplary embodiments and data showing Sender-Receiver cells produce and respond to auxin. […] (FIG. 2B) Stable expression of iaaH in Receiver cells allows them to produce auxin from precursors (blue square). (FIG. 2C) Conditioned media experiment (schematic). Fresh culture media with or without precursors was added to plated sender cells, collected, mixed at 1:1 ratio with standard fresh media, and then applied to receiver cells. (FIG. 2D) iaaH can produce IAA and NAA auxins from IAM and NAM precursors, respectively. Standard media, with or without precursors, was conditioned by Sender-Receivers or standard CHO-K1 cells for 48 hours and applied to Receiver cells for another two days. Receivers cultured with fresh media with or without auxins were also assayed as controls. Data are normalized to Receiver cell fluorescence treated with media conditioned by CHO-K1 cells. Error bars represent standard deviation of 3 replicates. (FIG. 2E) Auxin senders can generate an auxin gradient. Sender-Receivers (green) were seeded within a 7 mm×7 mm square at the edge of a 60 mm dish, and Receivers were plated everywhere else (no fluorescence or red). One day after plating, the media was replaced with fresh media containing low-melting-point agarose, with or without IAM (Methods). Plates were imaged after two additional days of culture. […]

Experiment [3] relates to Sender-Receiver cells. The experiment in a line: Quorum sensing of Sender-Receiver cells (reporter fluorescence versus population density). The settings on record: Sender-Receiver cells without PIN2, two days. The procedure:
as §1, with “Cells were seeded at different confluence levels, grown for four days in media with 50 μg/ml blasticidin and IAM, IAA, or no auxin (Error bars are standard deviation, n=3)).” left out
It was next asked whether Sender-Receiver cells could sense their own population density by producing auxin at a rate proportional to population size and sensing auxin concentration in the local environment (quorum sensing, FIG. 1A, middle panel). The dependence of reporter expression on cell population density in the presence of concentrations of each precursor sufficient to generate saturating levels of auxin was analyzed. […]

The target of experiment [4] is T1, mCherry-AID-Blast R. Nature of the experiment: Auxin regulation of mCherry-AID-BlastR fluorescence in Receiver cells. The settings on record: Receiver CHO-K1 cells, two days of treatment, Michaelis-Menten fit; read-out: EC50, reduction of mCherry fluorescence. An excerpt: FIGS. 1A-1D depict non-limiting exemplary embodiments and data showing the plant hormone auxin allows private-channel mammalian cell-cell communication. […] Middle: Engineered cells that can send and receive the signal simultaneously can respond to their own population size. Right: coupling the sending-receiving function with cell survival in a negative feedback can enable population control. (FIG. 1B) Auxin Receiver cells constitutively express a fluorescent target fusion protein, mCherry-AID-BlastR, as well as the F-box protein osTIR1. […] The response of mCherry fluorescence to two different species of auxin (IAA and NAA) was measured after two days of treatment (dots). […] Cells were counted by flow cytometry (n=3, error bar=standard deviation). […]
To establish and characterize auxin regulation of mammalian cell growth, auxin sensing was coupled to drug resistance and fluorescence. Specifically, blasticidin S deaminase (Blast R), whose protein product is necessary for survival in the presence of blasticidin, was fused to AID and mCherry domains, allowing auxin-dependent degradation and fluorescent readout of protein concentration, respectively. […]
To fit the mCherry's response curve to auxin and population (FIG. 1C, FIGS. 3A and 3B; FIGS. 7A and 7B), it was assumed the log of fluorescence (F) follows an inverted Michaelis-Menten's equation as follow: […]

Experiment [5] deals with Paradaux cells. The experiment in a line: Paradaux cell survival versus auxin with AP1903 and/or blasticidin, and model parameter fitting. From the text: FIGS. 4A-4G depict non-limiting exemplary embodiments and data showing paradoxical architecture reduces susceptibility to cheater mutations. (FIG. 4A) In the paradoxical architecture, the same signal inhibits growth (red pathway) and death (green pathway). This can produce a window of auxin concentrations leading to positive net growth (light blue region). Without mutation, the paradoxical and negative feedback circuits operate similarly around a stable equilibrium point of large population size (solid dots in the left panels). Mutations that eliminate sensing make both death and growth independent of auxin concentration (right panels), which selects against mutations in the paradoxical circuit due to negative net growth (FIG. 4B) In the paradoxical circuit implementation, auxin regulates growth through Blast^R (upper path), and also regulates apoptosis via iCasp9 (lower path), each with distinct fluorescent protein readouts and a small molecule (blasticidin and AP1903) as a control switch. (FIG. 4C) The full paradoxical circuit can be encoded as a single open reading frame, with distinct proteins separated by T2A peptides (grey squares). (FIG. 4D) Paradaux cells respond to auxin in a biphasic manner. Cells were seeded at about 1/8 confluence (grey dashed line) and pretreated with NAA for one day, then treated with combinations of NAA, blasticidin (20 μg/ml) and AP1903 (50 nM) for another 3 days, and imaged. Pink, green, and blue dots show the mean and standard deviation of three replicates in the presence of AP1903, blasticidin, or both, respectively. […] Blue dashed lines indicate predictions for the fully operational circuit based on the green and red curves. Dotted blue line is the model prediction when the synergy term is included. (FIG. 4E) Different classes of behavior can occur in different parameter regimes. Using the model auxin-dependent growth was simulated in different parameter regimes and identified five distinct regimes (indicated schematically as insets). Using this classification, growth curves were numerically analyzed and sorted for each concentration of blasticidin and AP1903 (central plot). The blue dot indicates the blasticidin and AP1903 concentrations used in the time-lapse movie analysis. The grey region indicates curves that could not be classified into one of these categories (0.68% of total, see FIG. 9F and Supplementary text). (FIG. 4F). For each expression level, the percent of blasticidin-AP1903 concentrations that generate paradoxical behavior was analyzed, similar to FIG. 4E. Optimizing the expression and ratio of Blast R and iCasp9 can widen the paradoxical regime. (FIG. 4G) Dynamic simulations show the Paradoxical Control circuit provides evolutionary robustness. For the negative feedback system, tic and βC and βsyn are set to zero. Mutated strains were simulated with auxin (A) fixed to zero, representing sensing deficient mutations. On day 25, 50, 75 and 100, mutant cells (1% of the population cap) were introduced into the simulated system to test robustness to mutations. These mutants take over in the negative feedback circuit (top) but not the paradoxical circuit (bottom). Dashed line indicates carrying capacity.
To encode the Paradaux circuit, a single multi-protein construct expressing osTIR1, the auxin-regulated iCasp9 system, and the auxin-regulated Blast R construct described above was designed (FIG. 4C). To eliminate one potential mechanism for evolutionary escape, Blast^R was positioned at the C-terminal end of the construct, so that premature stop codon mutations would deactivate Blast®, decreasing survival. The construct was integrated to create stable monoclonal CHO-K1 cell lines for further analysis. […]

Where [6] appears, read: fitted value, major Paradaux line (1).
Where [7] appears, read: fitted value, second Paradaux line (2).

pEC50: −log10 of the molar value.

T1 sequence (P93830 65-132 limits assumed, stated change not applied): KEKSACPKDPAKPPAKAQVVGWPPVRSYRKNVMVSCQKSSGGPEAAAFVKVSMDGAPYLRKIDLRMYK
T1 sequence (Q7XVM8 whole entry, stated change not applied): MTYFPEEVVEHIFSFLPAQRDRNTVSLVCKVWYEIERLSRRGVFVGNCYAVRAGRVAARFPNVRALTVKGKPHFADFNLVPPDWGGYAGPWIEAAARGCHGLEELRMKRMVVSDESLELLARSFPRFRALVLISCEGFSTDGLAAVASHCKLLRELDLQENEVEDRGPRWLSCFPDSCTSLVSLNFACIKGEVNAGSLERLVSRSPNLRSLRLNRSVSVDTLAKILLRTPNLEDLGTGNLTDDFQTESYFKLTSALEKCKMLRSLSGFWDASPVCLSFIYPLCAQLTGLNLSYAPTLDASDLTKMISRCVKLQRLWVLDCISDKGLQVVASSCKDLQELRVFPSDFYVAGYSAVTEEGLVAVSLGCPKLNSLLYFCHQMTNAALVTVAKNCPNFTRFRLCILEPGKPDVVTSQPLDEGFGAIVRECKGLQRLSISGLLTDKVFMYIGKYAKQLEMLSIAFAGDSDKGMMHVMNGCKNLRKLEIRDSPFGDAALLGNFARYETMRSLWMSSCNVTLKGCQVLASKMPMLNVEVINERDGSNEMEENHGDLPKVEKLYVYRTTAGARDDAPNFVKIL
T1 sequence (Q9WTX5 whole entry partner): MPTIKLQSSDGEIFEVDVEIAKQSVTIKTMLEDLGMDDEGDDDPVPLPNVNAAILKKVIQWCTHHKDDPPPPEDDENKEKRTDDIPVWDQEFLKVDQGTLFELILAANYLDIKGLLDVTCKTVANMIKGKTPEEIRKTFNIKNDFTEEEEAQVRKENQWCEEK

As to `NC(=O)Cc1c[nH]c2ccccc12` [IAM, indole-3-acetamide], the “Cell numbers at high seeding density versus no IAM or IAA” value in experiment [1] was “reduced cell numbers”. Further, the “Reduction of mCherry-AID-BlastR in Receivers by media conditioned by Sender-Receivers with precursor” value in experiment [2] is “comparable to those generated by saturating concentrations of IAA”. Also, the “Reporter fluorescence versus population density with precursor” value in experiment [3] is reported as “strong, but density-independent, decrease in fluorescence”.

Regarding `O=C(O)Cc1cccc2ccccc12` [NAA, 1-napthalenatic acid], the pEC50 (as a rule, −log10 of the EC50, conventionally taken in molar units) in experiment [4] is 6.12.

As to `NC(=O)Cc1cccc2ccccc12` [NAM, 1-naphthaleneacetamide], the “Reduction of mCherry-AID-BlastR in Receivers by media conditioned by Sender-Receivers with precursor” value in experiment [2] is reported as “diminished response compared to NAA”. Further, the “Reporter fluorescence versus population density with precursor” value in experiment [3] is listed as “decreased in response to increasing population density”.

Turning to `CN(CC[C@H](N)CC(=O)N[C@H]1C=C[C@H](n2ccc(N)nc2=O)O[C@@H]1C(=O)O)C(=N)N` [blasticidin], in experiment [5] (setting [6]), the “n1, cooperativity of the blasticidin regulation” value is given as 2.26(1); DL; the “βB, maximum net growth reduction by blasticidin” value is reported as 0.0874(1); hr^−1; the “κB, effective strength of blasticidin” value is 0.045(1); (μg/ml)^−1. Besides, in experiment [5] (setting [7]), the “n1, cooperativity of the blasticidin regulation” value is 2.28(2) DL; the “βB, maximum net growth reduction by blasticidin” value is 0.147(2) hr^−1; the “κB, effective strength of blasticidin” value was 0.069(2) (μg/ml)^−1.

Regarding auxin, the “Survival of Paradaux cells as a function of auxin” value in experiment [5] (both blasticidin and AP1903) is on record as “biphasic survival curve”; in experiment [5] (in the presence of AP1903), “increased monotonically”; in experiment [5] (in the presence of blasticidin), “decreased”. Also, the “κA, effective strength of auxin” value in experiment [5] (fitted value) amounted to 1.316 µM⁻¹.

For the origin of these results see patent US11999964B2, “Synthetic mammalian signaling circuits for robust cell population control” (California Institute of Technology, priority 2020, dated 2024).
